# Experiments:
# [1] = tested on: male gypsy moth antenna; test: Coupled gas chromatographic-electroantennographic detection (GC-EAD); parameters: species or system Lymantria dispar; conditions: EAD peak size and shape (sharp/broad)
# Summary of the method: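 GC column effluent split between flame ionization detector and an excised male moth antenna held between saline-filled glass capillary electrodes, tip removed, in a warm air stream. Antennal potentials assigned to compounds by matching retention times with FID peaks.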
# [2] = tested on: L. dispar PBP 1; test: Pheromone-binding protein (PBP) ligand binding assay, PBP1; parameters: species or system Lymantria dispar
# Summary of the method: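 L. dispar PBP1 or PBP2 equilibrated overnight in buffer with test compound or mini-library; free ligand removed by size-exclusion chromatography on P2 gel. Total and protein-bound ligand extracted and quantified by GC-MS per component; % bound = 100×[PBP·L]/[L]tot.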
# [3] = member tested within library 3c{2, 1-5}
# [4] = member tested within library 3c{3, 1-5}
# [5] = tested as single compound, means ± S.E., 4 replicates
# [6] = member tested within library 3c{1, 1-5}
compound,measurement,setting,value
"CCCOc1ccc(OCC)cc1 [3c{2,3}, 1-ethoxy-4-propoxy benzene]",GC-EAD activity,[1],None
same,PBP1 (% bound),[2]; [3],10 ± 0.3%
same,PBP1 (% bound),[2]; [4],13 ± 0.3%
"CC(C)CCOc1ccc(OCCC(C)C)cc1 [3c{5,5}, 1,4-Di-(3-methyl-butyloxy) benzene]",GC-EAD activity,[1],None
same,PBP1 (% bound),"[2]; member tested within library 3c{5, 1-5}",5 ± 0.1%
same,PBP1 (% bound),[2]; [5],9 ± 0.7%
"CCCOc1ccc(OCCC)cc1 [3c{3,3}, 1,4-Dipropoxy benzene]",GC-EAD activity,[1],None
same,PBP1 (% bound),[2]; [4],4 ± 0.3%
same,PBP1 (% bound),[2]; [5],15 ± 0.7%
"CCOc1ccc(OCC)cc1 [3c{2,2}, 1,4-Diethoxy benzene]",GC-EAD activity,[1],Trace
same,PBP1 (% bound),[2]; [3],14 ± 0.5%
same,PBP1 (% bound),[2]; [5],28 ± 0.1%
"CCCOc1ccc(OC)cc1 [3c{1,3}, 1-methoxy-4-propoxy-benzene]",GC-EAD activity,[1],+ sharp
same,PBP1 (% bound),[2]; [6],7 ± 0.5%
same,PBP1 (% bound),[2]; [4],13 ± 0.3%
"COc1ccc(OC)cc1 [3c{1,1}, 1,4-Dimethoxy benzene]",GC-EAD activity,[1],+ sharp
same,PBP1 (% bound),[2]; [6],24 ± 0.3%
same,PBP1 (% bound),[2]; [5],40 ± 2.5%
